According to paper PMC9014845 (Clinical cancer research : an official journal of the …, 2019):

Key:
[1] = tested on: tumor models with FGFR alterations; conditions: several tumor models with FGFR alterations in vivo; cited from earlier work
FGFR = assay: Blood PD biomarkers; assay type: in vivo, human

## Debio 1347
[1]
  Efficacy in tumor models: effective
FGFR; maximum serum phosphate in cycle 1 versus plasma trough levels
  Hyperphosphatemia versus plasma exposure: correlated with Debio 1347 exposure
FGFR; oral once daily
  Dose at which serum phosphate confirmed target engagement: ≥ 60 mg/day
FGFR; seen in about half of patients at 60 mg/day, majority at ≥80 mg/day
  Ctrough at which serum phosphate increases of 50% from baseline were achieved: about 400 ng/mL
FGFR; steady-state, without clear relationship to the dose
  Plasma FGF23 change: overall increase
